SMILES strings stand for the structures.

The test system of test [1] is dialkylglycine decarboxylase gene expression in E. coli DH5α/pKBD6. Description: Time course of dialkylglycine decarboxylase induction in E. coli DH5α/pKBD6. To be noted: DH5α/pKBD6 in minimal medium with ammonium chloride; amino acid added during growth (10 mM in FIG. 7 legend, 8.0 mM in method). It is filed as cell-based, Escherichia coli. The protocol: FIG. 7 depicts induction of dialkylglycine decarboxylase activity in E. coli DH5a/pKBD6 cultures by various amino acids. One-liter cultures containing minimal salts, glucose, NH4 Cl, and tetracycline (12 μg/ml) were supplemented at the indicated time with amino acid (final concentration, 10 mM). Absorbance of the culture was measured at 600 nm in a 1-cm cell ( -- ). Each activity assay contained 60 absorbance units of resuspended bacteria (.largecircle.--.largecircle.)
Radiochemical Dialkylglycine Decarboxylase Assay--Dialkylglycine decarboxylase activity was measured under zero-order conditions essentially as described (Dinwoodie and Boeker, 1979). Assay reactions contained 500 μL of protein solution (100 mM MOPS^1, (MOPS=3-(N-morphalino)propanesulfonic acid), 25 mM KCl, 0.05 mM PLP, (PLP=pyridoxal 5'-phosphate), pH 7.00 or 30 mM Tris, 40 mM KCl, 0.05 mM PLP pH 7.90) plus 0.045 mL of substrate solution (245 mM 2-methylalanine, 62 mM sodium pyruvate, containing 0.25 μCi [1-^14 C]2-methylalanine)- Assays were carried out in stoppered 12×220 mm test tubes containing a folded 10×25 mm piece of filter paper soaked with 24 μL of 2:1 ethanolamine/2-ethoxyethanol- After incubation at room temperature (25° C.) for one or two hours, the reaction was quenched with 200 μL of 50% trichloroacetic acid, ^14 CO2 was collected for one hour, and the filter paper was counted in 10 mL of Beckman Ready Safe cocktail. One unit is defined as the amount of activity required to produce 1 nanomole of CO2 per min. at 25° C.
Time Course of Dialkylglycine Decarboxylase Induction--An 800-mL portion of M9 containing 12 μg/mL tetracycline in a 6-L conical flask was inoculated with DH5α/pKBD6. The flask was shaken at 37° C. and the absorbance at 600 nm was measured periodically. At various times during cell growth aliquots containing 60. AU's (absorbance units) of cells were removed, stored on ice, concentrated by centrifugation, and resuspended in 1.0 mL MOPS buffer. Aliquots of 0.50 mL were assayed for dialkylglycine activity. After the first two samples were taken, an amino acid (2-methylalanine, R,S-isovaline, D-alanine, or L-alanine) was added to a final concentration of 8.0 mM and sampling was continued.

Test [2] concerns dialkylglycine decarboxylase gene (dgdA) expression controlled by the P. cepacia repressor, in E. coli JM109/pGEM7Z14. It is filed as cell-based, Escherichia coli. Conditions: 20 mM amino acid in culture medium.
Description: Induction Stereochemistry--The induction phenomenon was further investigated by surveying the inducing ability of the separate isovaline stereoisomers and 15 other structurally similar amino acids (Table 3).
In some experiments 20 mM 2-methylalanine or other amino acid or 1 mg/mL IPTG was added to the growth medium. […] Protein concentrations were determined by dye binding (Read and Northcote, 1981).
In test [3] the target is T1, Pseudomonas cepacia 2,2-dialkylglycine decarboxylase repressor (dgdR gene product, SEQ ID NO: 11) bound to operators O1 and O2 (Burkholderia cepacia, UniProt P16931).
T1 construct: crude extract or ammonium sulfate fraction; gel shift on dgd operator DNA
T1 sequence (P16931 whole entry): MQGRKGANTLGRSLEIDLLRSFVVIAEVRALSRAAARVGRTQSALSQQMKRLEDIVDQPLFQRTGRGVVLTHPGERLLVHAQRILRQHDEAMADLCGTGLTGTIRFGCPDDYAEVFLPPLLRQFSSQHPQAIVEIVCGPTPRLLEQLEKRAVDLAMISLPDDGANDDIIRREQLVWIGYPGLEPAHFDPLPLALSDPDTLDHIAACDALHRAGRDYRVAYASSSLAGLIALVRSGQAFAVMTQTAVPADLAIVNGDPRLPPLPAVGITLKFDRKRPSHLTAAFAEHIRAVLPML
Description: Gel mobility shift assay of dgdR repressor with the 788 bp DNA fragment in presence of 2-methylalanine. It is filed as binding. Conditions: 20 mM 2-methylalanine in gel; 788 bp fragment containing O1 and O2. The protocol:
Repressor Preparation--A 100 ml portion of LB medium containing about 50 μg/ml carbenicillin was inoculated with about a 2 ml overnight culture of JM109/pJKDGDR1 and was grown at about 37° C. to an OD600 of 1. IPTG was added to a final concentration of about 1 mM, the culture was shaken another 4 h, and then was pelleted by centrifugation at 4000 xg at about 4° C. The pellet was resuspended in 5 ml buffer (50 mM TrisHCl pH 7.9, 50 mM KCl), sonicated 3×0.5 min at about 0° C., and centrifuged for about 15 min at about 12,000 xg at about 4° C. Aliquots of the supernatant were used for gel shift assays and SDS-PAGE. Other aliquots were partially purified by selective precipitation with 1.0 M ammonium sulfate. Protein concentration was determined by the dye binding method of Read and Northcote (1981). […]
Gel Shift Assays--A 10 μl assay mixture contained about 50 ng of DNA fragment, 1.0 μg of repressor extract (or 1.0 μg of extract from a JM109 strain containing a dgdA-pBTac1 recombinant), 10 mM TrisHCl pH 7.6, 5 mM sodium acetate, 2.5% glycerol, and 0.005% bovine serum albumin. The mixture was incubated 5 to 20 min at room temperature, about 3 μl of 50% sucrose/0.1% bromophenol blue was added, and the entire sample was analyzed by electrophoresis in a 1 mm 4% polyacrylamide gel containing about […] Tris, 380 mM glycine, 4 mM EDTA, and 2.5% glycerol. […]

The target of test [4] is Pseudomonas cepacia 2,2-dialkylglycine decarboxylase (Burkholderia cepacia, UniProt P16932). Conditions: isovaline isomer as substrate of the decarboxylase; read-out: Michaelis constant; cited from earlier work.
Chain of Pseudomonas cepacia 2,2-dialkylglycine decarboxylase (P16932 2-433): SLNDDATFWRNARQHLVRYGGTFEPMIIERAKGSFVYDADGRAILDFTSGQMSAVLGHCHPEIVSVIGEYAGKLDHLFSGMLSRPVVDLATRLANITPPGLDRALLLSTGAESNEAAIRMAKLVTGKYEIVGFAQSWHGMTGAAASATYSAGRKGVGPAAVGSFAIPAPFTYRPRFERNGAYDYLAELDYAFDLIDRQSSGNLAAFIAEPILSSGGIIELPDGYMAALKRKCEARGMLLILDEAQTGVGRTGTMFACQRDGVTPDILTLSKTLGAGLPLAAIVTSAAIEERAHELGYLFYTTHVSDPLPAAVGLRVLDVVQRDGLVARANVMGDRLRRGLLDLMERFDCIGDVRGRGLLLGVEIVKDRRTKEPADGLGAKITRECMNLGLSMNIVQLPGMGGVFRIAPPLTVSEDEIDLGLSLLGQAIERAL

As for `CCC(C)(N)C(=O)O` (racemic) [racemic isovaline, isovaline (2-ethylalanine)], the “induction of decarboxylase specific activity after amino acid addition (in words)” value (“induction … after amino acid addition (in words)” for short) in test [1] is “immediate and rapid increase in decarboxylase specific activity”.

With `NC1(C(=O)O)CCCC1` [1-Aminocyclopentane carboxylic acid], the “induction of decarboxylase (in words)” value in test [2] is recorded as “induced an intermediate level”.

`CC(C)(N)C(=O)O` [2-Methylalanine]: in test [1], the “induction … after amino acid addition (in words)” value is “immediate and rapid increase in decarboxylase specific activity”. In addition, the “effect on repressor binding to operators (gel shift, in words)” value in test [3] is “releases O1, but not O2, binding”.

On to `C[C@@H](N)C(=O)O` [D-Alanine], for which, in test [1], the “induction … after amino acid addition (in words)” value was “no decarboxylase production”.

With `C[C@H](N)C(=O)O` [L-Alanine], in test [1], the “induction … after amino acid addition (in words)” value was “no decarboxylase production”.

In the case of `CC[C@@](C)(N)C(=O)O` [R-Isovaline], in test [4], the Km is 1 mM.

With `CC[C@](C)(N)C(=O)O` [S-Isovaline], the Km in test [4] is 25 mM.

Values taken from patent US5356796A, “Repressor protein and operon for regulating expression of polypeptides and its use in the preparation of 2,2-dialkyglycine decarboxylase of Pseudomonas cepacia” (priority 1992, dated 1994).
